Results published in PubChem BioAssay (NCI).
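GI50 = concentration required for 50% inhibition of growth. TGI: concentration producing complete growth inhibition.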

What was measured:
Assay in all cases: growth of human tumour cells (NCI), 384-well format; in the data active means GI50 below about 0.43 µM; inactive means the rest
786-0 renal = tested on: 786-0 renal
A498 renal = tested on: A498 renal
A549 NSCLC = tested on: A549 NSCLC
ACHN renal = tested on: ACHN renal
BT-549 breast = tested on: BT-549 breast
CAKI-1 renal = tested on: CAKI-1 renal
COLO 205 colon = tested on: COLO 205 colon
DU-145 prostate = tested on: DU-145 prostate
EKVX NSCLC = tested on: EKVX NSCLC
HCT-116 colon = tested on: HCT-116 colon
HCT-15 colon = tested on: HCT-15 colon
HL-60(TB) leukemia = tested on: HL-60(TB) leukemia
HOP-62 NSCLC = tested on: HOP-62 NSCLC
HOP-92 NSCLC = tested on: HOP-92 NSCLC
HS 578T breast = tested on: HS 578T breast
HT29 colon = tested on: HT29 colon
IGROV1 ovarian = tested on: IGROV1 ovarian
K-562 leukemia = tested on: K-562 leukemia
KM12 colon = tested on: KM12 colon
M14 melanoma = tested on: M14 melanoma
MALME-3M melanoma = tested on: MALME-3M melanoma
MCF7 breast = tested on: MCF7 breast
MDA-MB-231 breast = tested on: MDA-MB-231 breast
MDA-MB-435 melanoma = tested on: MDA-MB-435 melanoma
MDA-MB-468 breast = tested on: MDA-MB-468 breast
MOLT-4 leukemia = tested on: MOLT-4 leukemia
NCI-H226 lung = tested on: NCI-H226 lung
NCI-H23 lung = tested on: NCI-H23 lung
NCI-H322M lung = tested on: NCI-H322M lung
NCI-H460 NSCLC = tested on: NCI-H460 NSCLC
NCI-H522 lung = tested on: NCI-H522 lung
OVCAR-3 ovarian = tested on: OVCAR-3 ovarian
OVCAR-4 ovarian = tested on: OVCAR-4 ovarian
OVCAR-5 ovarian = tested on: OVCAR-5 ovarian
OVCAR-8 ovarian = tested on: OVCAR-8 ovarian
PC-3 prostate = tested on: PC-3 prostate
RXF 393 renal = tested on: RXF 393 renal
SF-268 CNS = tested on: SF-268 CNS
SF-295 CNS = tested on: SF-295 CNS
SF-539 CNS = tested on: SF-539 CNS
SK-MEL-2 melanoma = tested on: SK-MEL-2 melanoma
SK-MEL-28 melanoma = tested on: SK-MEL-28 melanoma
SK-MEL-5 melanoma = tested on: SK-MEL-5 melanoma
SK-OV-3 ovarian = tested on: SK-OV-3 ovarian
SN12C renal = tested on: SN12C renal
SNB-19 CNS = tested on: SNB-19 CNS
SNB-75 CNS = tested on: SNB-75 CNS
SR leukemia = tested on: SR leukemia
SW-620 colon = tested on: SW-620 colon
T-47D breast = tested on: T-47D breast
TK-10 renal = tested on: TK-10 renal
U251 glioblastoma = tested on: U251 glioblastoma
UACC-257 melanoma = tested on: UACC-257 melanoma
UACC-62 melanoma = tested on: UACC-62 melanoma
UO-31 renal = tested on: UO-31 renal

Cn1cc(Nc2nccc(-c3ccc4c(c3)CN(C3COC3)CC[C@H]4NC(=O)c3cn(C(C)(C)C)nn3)n2)cn1
> 100 µM: TGI (786-0 renal) | TGI (A498 renal) | TGI (A549 NSCLC) | TGI (ACHN renal) | TGI (BT-549 breast) | TGI (CAKI-1 renal) | TGI (COLO 205 colon) | TGI (DU-145 prostate) | TGI (EKVX NSCLC) | TGI (HCT-116 colon) | TGI (HCT-15 colon) | TGI (HL-60(TB) leukemia) | TGI (HOP-62 NSCLC) | TGI (HOP-92 NSCLC) | TGI (HS 578T breast) | TGI (HT29 colon) | TGI (KM12 colon) | TGI (M14 melanoma) | TGI (MALME-3M melanoma) | TGI (MCF7 breast) | TGI (MDA-MB-231 breast) | TGI (MDA-MB-435 melanoma) | TGI (MDA-MB-468 breast) | TGI (NCI-H226 lung) | TGI (NCI-H23 lung) | TGI (NCI-H322M lung) | TGI (NCI-H460 NSCLC) | TGI (OVCAR-3 ovarian) | TGI (OVCAR-4 ovarian) | TGI (OVCAR-5 ovarian) | TGI (OVCAR-8 ovarian) | TGI (PC-3 prostate) | TGI (SF-268 CNS) | TGI (SF-295 CNS) | TGI (SF-539 CNS) | TGI (SK-MEL-2 melanoma) | TGI (SK-MEL-28 melanoma) | TGI (SK-MEL-5 melanoma) | TGI (SK-OV-3 ovarian) | TGI (SN12C renal) | TGI (SNB-19 CNS) | TGI (SNB-75 CNS) | TGI (SW-620 colon) | TGI (T-47D breast) | TGI (TK-10 renal) | TGI (U251 glioblastoma) | TGI (UACC-257 melanoma) | TGI (UACC-62 melanoma) | TGI (UO-31 renal)
54.1 µM: TGI (RXF 393 renal)
24.6 µM: TGI (K-562 leukemia)
inactive: GI50 ([…]-0 renal) > 100 µM | GI50 (A498 renal) > 100 µM | GI50 (A549 NSCLC) 60.9 µM | GI50 (ACHN renal) 41.9 µM | GI50 (BT-549 breast) 51.6 µM | GI50 (CAKI-1 renal) 44.7 µM | GI50 (COLO 205 colon) 37.7 µM | GI50 (DU-145 prostate) > 100 µM | GI50 (EKVX NSCLC) 28 µM | GI50 (HCT-116 colon) 44.5 µM | GI50 (HCT-15 colon) > 100 µM | GI50 (HL-60(TB) leukemia) 35.1 µM | GI50 (HOP-62 NSCLC) > 100 µM | GI50 (HOP-92 NSCLC) 52.7 µM | GI50 (HS 578T breast) 84.7 µM | GI50 (HT29 colon) 32.1 µM | GI50 (IGROV1 ovarian) 18.6 µM | GI50 (K-562 leukemia) 11.2 µM | GI50 (KM12 colon) 56 µM | GI50 (M14 melanoma) 36.5 µM | GI50 (MALME-3M melanoma) 45.5 µM | GI50 (MCF7 breast) 20.8 µM | GI50 (MDA-MB-231 breast) 78.1 µM | GI50 (MDA-MB-435 melanoma) 43.2 µM | GI50 (MDA-MB-468 breast) 23.7 µM | GI50 (MOLT-4 leukemia) 15.3 µM | GI50 (NCI-H226 lung) 33 µM | GI50 (NCI-H23 lung) 30.2 µM | GI50 (NCI-H322M lung) 68 µM | GI50 (NCI-H460 NSCLC) 44.2 µM | GI50 (NCI-H522 lung) 22.1 µM | GI50 (OVCAR-3 ovarian) 60.9 µM | GI50 (OVCAR-4 ovarian) 54.4 µM | GI50 (OVCAR-5 ovarian) 61.5 µM | GI50 (OVCAR-8 ovarian) > 100 µM | GI50 (PC-3 prostate) > 100 µM | GI50 (RXF 393 renal) 11.4 µM | GI50 (SF-268 CNS) > 100 µM | GI50 (SF-295 CNS) > 100 µM | GI50 (SF-539 CNS) 49.2 µM | GI50 (SK-MEL-2 melanoma) 66.3 µM | GI50 (SK-MEL-28 melanoma) 37.1 µM | GI50 (SK-MEL-5 melanoma) 27.3 µM | GI50 (SK-OV-3 ovarian) 29.5 µM | GI50 (SN12C renal) 46.7 µM | GI50 (SNB-19 CNS) > 100 µM | GI50 (SNB-75 CNS) 45.8 µM | GI50 (SR leukemia) 12.9 µM | GI50 (SW-620 colon) 48.5 µM | GI50 (T-47D breast) 30.9 µM | GI50 (TK-10 renal) 70.8 µM | GI50 (U251 glioblastoma) > 100 µM | GI50 (UACC-257 melanoma) 43.4 µM | GI50 (UACC-62 melanoma) 27.3 µM | GI50 (UO-31 renal) 48 µM
54.4 µM: TGI (IGROV1 ovarian)
74 µM: TGI (NCI-H522 lung)
27.1 µM: TGI (SR leukemia)
29.4 µM: TGI (MOLT-4 leukemia)
